Measurements published in patent US11306092B2, “Amino indole compounds useful as TLR inhibitors” (BRISTOL-MYERS SQUIBB COMPANY, priority 2017, dated 2022).

Tests used:
Type in all cases: cell-based
human TLR9 = target: T1, human TLR9 (Homo sapiens, UniProt Q9NR96); experiment: TLR9 inhibition reporter assay (HEK-Blue SEAP reporter); settings: HEK-Blue cells overexpressing human TLR9; ODN2006 5 nM; 22 hour incubation
T1 construct: host or cells: HEK-Blue cells
T1 sequence (Q9NR96 26-1032): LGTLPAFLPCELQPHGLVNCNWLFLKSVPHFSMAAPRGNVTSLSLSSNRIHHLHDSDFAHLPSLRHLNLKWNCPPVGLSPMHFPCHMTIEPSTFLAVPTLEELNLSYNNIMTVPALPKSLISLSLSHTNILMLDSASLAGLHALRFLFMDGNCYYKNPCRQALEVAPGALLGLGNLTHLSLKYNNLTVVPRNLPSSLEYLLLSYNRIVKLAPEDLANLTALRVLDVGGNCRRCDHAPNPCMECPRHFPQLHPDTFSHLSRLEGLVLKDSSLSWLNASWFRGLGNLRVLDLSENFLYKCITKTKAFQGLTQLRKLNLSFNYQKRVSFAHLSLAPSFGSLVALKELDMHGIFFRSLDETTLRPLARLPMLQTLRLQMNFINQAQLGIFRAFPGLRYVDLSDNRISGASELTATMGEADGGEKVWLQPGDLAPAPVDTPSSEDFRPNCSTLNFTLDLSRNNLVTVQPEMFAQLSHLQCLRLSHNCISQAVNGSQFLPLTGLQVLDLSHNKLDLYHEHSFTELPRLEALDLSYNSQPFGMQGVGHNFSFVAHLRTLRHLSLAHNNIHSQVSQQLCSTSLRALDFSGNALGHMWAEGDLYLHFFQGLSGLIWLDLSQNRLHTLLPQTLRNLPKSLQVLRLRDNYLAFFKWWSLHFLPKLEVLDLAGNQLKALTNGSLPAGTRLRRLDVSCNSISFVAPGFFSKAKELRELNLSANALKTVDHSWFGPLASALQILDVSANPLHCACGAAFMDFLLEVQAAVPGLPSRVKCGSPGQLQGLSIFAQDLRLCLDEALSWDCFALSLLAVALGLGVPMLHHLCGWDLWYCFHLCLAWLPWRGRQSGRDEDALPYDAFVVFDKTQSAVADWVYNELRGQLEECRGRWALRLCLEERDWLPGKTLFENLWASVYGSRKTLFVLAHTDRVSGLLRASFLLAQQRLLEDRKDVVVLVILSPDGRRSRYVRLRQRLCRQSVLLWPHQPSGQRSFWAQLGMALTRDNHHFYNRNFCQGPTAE
Method in brief: (§1)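 Screening used HEK-Blue cells overexpressing one human TLR (7, 8 or 9) and an IFN-β minimal promoter–NF-κB/AP-1 SEAP construct. Stimulation lasted 22 h at 37 °C with receptor-specific agonist: gardiquimod, R848 or ODN2006 at 7.5 μM, 15.9 μM and 5 nM.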

human TLR8 = target: T2, human TLR8 (Homo sapiens, UniProt Q9NR97); experiment: TLR8 inhibition reporter assay (HEK-Blue SEAP reporter); settings: HEK-Blue cells overexpressing human TLR8; R848 15.9 μM; 22 hour incubation
T2 construct: host or cells: HEK-Blue cells
T2 sequence (Q9NR97 27-1041): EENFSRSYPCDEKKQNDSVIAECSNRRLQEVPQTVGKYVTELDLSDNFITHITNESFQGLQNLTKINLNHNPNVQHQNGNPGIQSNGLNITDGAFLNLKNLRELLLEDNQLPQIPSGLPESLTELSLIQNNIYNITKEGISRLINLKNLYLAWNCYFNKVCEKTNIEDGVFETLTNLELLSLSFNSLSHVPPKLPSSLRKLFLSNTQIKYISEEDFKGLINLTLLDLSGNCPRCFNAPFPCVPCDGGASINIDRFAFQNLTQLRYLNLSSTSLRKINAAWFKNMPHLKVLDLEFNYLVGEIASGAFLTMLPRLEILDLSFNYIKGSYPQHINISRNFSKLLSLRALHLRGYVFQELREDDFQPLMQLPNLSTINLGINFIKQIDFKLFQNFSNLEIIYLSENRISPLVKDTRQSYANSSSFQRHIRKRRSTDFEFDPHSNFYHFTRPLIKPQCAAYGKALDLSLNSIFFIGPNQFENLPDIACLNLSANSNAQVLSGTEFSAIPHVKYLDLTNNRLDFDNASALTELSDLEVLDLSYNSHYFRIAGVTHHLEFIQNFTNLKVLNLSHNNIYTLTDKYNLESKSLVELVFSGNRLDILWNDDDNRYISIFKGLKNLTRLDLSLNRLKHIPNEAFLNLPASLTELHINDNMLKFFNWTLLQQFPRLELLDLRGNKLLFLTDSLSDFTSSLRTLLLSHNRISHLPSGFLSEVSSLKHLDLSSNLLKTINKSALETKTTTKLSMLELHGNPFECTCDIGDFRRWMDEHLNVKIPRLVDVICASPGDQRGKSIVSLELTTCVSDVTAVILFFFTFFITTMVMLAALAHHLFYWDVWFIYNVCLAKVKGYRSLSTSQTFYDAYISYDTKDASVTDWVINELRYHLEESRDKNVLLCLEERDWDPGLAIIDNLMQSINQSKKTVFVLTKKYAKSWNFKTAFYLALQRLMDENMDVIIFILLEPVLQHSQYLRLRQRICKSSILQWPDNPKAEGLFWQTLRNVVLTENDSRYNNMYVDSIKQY
Method in brief: as §1

human TLR7 = target: T3, human TLR7 (Homo sapiens, UniProt Q9NYK1); experiment: TLR7 inhibition reporter assay (HEK-Blue SEAP reporter); settings: HEK-Blue cells overexpressing human TLR7; gardiquimod 7.5 μM; 22 hour incubation
T3 construct: host or cells: HEK-Blue cells
T3 sequence (Q9NYK1 27-1049): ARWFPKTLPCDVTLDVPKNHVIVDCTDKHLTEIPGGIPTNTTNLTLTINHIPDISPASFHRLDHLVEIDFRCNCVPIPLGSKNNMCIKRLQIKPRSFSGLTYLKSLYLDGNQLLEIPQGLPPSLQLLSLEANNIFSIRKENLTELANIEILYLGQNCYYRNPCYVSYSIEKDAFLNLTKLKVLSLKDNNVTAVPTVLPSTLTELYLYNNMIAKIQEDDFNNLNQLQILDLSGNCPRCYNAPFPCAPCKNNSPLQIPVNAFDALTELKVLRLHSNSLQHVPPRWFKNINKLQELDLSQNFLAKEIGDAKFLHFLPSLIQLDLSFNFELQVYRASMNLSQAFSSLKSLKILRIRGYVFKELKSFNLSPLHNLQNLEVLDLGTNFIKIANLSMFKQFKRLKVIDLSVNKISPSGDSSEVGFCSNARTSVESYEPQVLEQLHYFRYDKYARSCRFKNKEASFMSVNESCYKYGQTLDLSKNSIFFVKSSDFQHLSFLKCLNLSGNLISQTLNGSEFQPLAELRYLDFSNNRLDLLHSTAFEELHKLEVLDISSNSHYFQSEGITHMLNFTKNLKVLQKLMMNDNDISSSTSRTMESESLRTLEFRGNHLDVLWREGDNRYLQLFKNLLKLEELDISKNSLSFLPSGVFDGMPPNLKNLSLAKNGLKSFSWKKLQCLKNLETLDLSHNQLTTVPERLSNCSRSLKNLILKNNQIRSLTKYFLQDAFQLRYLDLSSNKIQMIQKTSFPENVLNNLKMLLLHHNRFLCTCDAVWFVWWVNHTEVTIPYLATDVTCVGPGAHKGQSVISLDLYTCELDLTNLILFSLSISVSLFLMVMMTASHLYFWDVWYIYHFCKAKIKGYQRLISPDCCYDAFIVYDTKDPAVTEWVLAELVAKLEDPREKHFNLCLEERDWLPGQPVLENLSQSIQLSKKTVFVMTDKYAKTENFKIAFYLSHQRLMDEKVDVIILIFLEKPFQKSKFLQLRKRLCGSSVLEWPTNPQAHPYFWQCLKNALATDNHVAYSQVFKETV
Method in brief: as §1

Row | SMILES | IC50 (human TLR9) [µM] | IC50 (human TLR8) [µM] | IC50 (human TLR7) [µM]
1 | COc1ccc(-c2[nH]c3ccc(NC4CCC(N5CCN(C6CCN(C)CC6)CC5)CC4)cc3c2C(C)C)cc1OC (stereo not drawn) [Example 61, 2-(3,4-dimethoxyphenyl)-3-isopropyl-N-(4-(4-(1-methylpiperidin-4-yl)piperazin-1-yl)cyclohexyl)-1H-indol-5-amine] | 0.555 | 0.174 | 0.144
2 | COc1ccc(-c2[nH]c3ccc(NC4CCC(N5CCN(C6CCN(C)CC6)CC5)CC4)cc3c2C(C)C)cc1OC (stereo not drawn) [Example 62, 2-(3,4-dimethoxyphenyl)-3-isopropyl-N-(4-(4-(1-methylpiperidin-4-yl)piperazin-1-yl)cyclohexyl)-1H-indol-5-amine] | 0.323 | 0.212 | 0.211
3 | COc1ccc(-c2[nH]c3ccc(N4CCN(C5CC(C)(C)NC(C)(C)C5)CC4)cc3c2C(C)C)cc1OC [Example 68, 2-(3,4-dimethoxyphenyl)-3-isopropyl-5-(4-(2,2,6,6-tetramethyl-112-piperidin-4-yl)piperazin-1-yl)-1H-indole] | 0.676 | 0.011 | 0.034
4 | CCc1c(-c2ccc(OC)c(OC)c2)[nH]c2cc(C(C)C)c(N3CCN(C4CCN(C(C)C)CC4)CC3)cc12 [Example 69, 2-(3,4-dimethoxyphenyl)-3-ethyl-6-isopropyl-5-(4-(1-isopropylpiperidin-4-yl)piperazin-1-yl)-1H-indole] | 2.61 | 14.3 | 1.16
5 | COc1ccc(-c2[nH]c3ccc(N4CCC(N5CCCC5)CC4)cc3c2C(C)C)cc1OC [Example 70, 2-(3,4-dimethoxyphenyl)-3-isopropyl-5-(4-(pyrrolidin-1-yl)piperidin-1-yl)-1H-indole] | 1.7 | 0.0031 | 0.13
6 | CNCCNC1CCN(c2ccc3[nH]c(-c4ccc(OC)c(OC)c4)c(C(C)C)c3c2)CC1 [Example 72, N1-(1-(2-(3,4-dimethoxyphenyl)-3-isopropyl-1H-indol-5-yl)piperidin-4-yl)-N2-methylethane-1,2-diamine] | 1.39 | 0.0028 | 0.015
7 | COc1ccc(-c2[nH]c3ccc(N4CCC(N5CCNCC5)CC4)cc3c2C(C)C)cc1OC [Example 73, 2-(3,4-dimethoxyphenyl)-3-isopropyl-5-(4-(piperazin-1-yl)piperidin-1-yl)-1H-indole] | 2.11 | 0.065 | 0.063
8 | COc1ccc(-c2[nH]c3ccc(N4CCC(N5CCOCC5)CC4)cc3c2C(C)C)cc1OC [Example 74, 4-(1-(2-(3,4-dimethoxyphenyl)-3-isopropyl-1H-indol-5-yl)piperidin-4-yl)morpholine] | 5.21 | 0.015 | 0.062
9 | COc1ccc(-c2[nH]c3ccc(N4CCC(NCCCN(C)C)CC4)cc3c2C(C)C)cc1OC [Example 76, N1-(1-(2-(3,4-dimethoxyphenyl)-3-isopropyl-H-indol-5-yl)piperidin-4-yl)-N3,N3-dimethylpropane-1,3-diamine] | 0.782 | 0.0078 | 0.018
10 | COc1ccc(-c2[nH]c3ccc(N4CCC(NCCCN(C)C)CC4)cc3c2C(C)C)cc1OC [Example 77, N1-(1-(2-(3,4-dimethoxyphenyl)-3-isopropyl-H-indol-5-yl)piperidin-4-yl)-N3,N3-dimethylpropane-1,3-diamine] | 1.98 | 0.0096 | 0.061
11 | CCN1CCN(C2CCN(c3ccc4[nH]c(-c5ccc(OC)c(OC)c5)c(C(C)C)c4c3)CC2)CC1 [Example 78, 2-(3,4-dimethoxyphenyl)-5-(4-(4-ethylpiperazin-1-yl)piperidin-1-yl)-3-isopropyl-1H-indole] | 0.929 | 0.014 | 0.05
12 | COc1ccc(-c2[nH]c3ccc(N4CCC(NC5CCN(C)CC5)CC4)cc3c2C(C)C)cc1OC [Example 79, 1-(2-(3,4-dimethoxyphenyl)-3-isopropyl-1H-indol-5-yl)-N-(1-methylpiperidin-4-yl)piperidin-4-amine] | 0.64 | 0.0047 | 0.0098
13 | COc1ccc(-c2[nH]c3ccc(N4CCC(N5CC(C)OC(C)C5)CC4)cc3c2C(C)C)cc1OC (stereo not drawn) [Example 80, 4-(1-(2-(3,4-dimethoxyphenyl)-3-isopropyl-H-indol-5-yl)piperidin-4-yl)-2,6-dimethylmorpholine] | 5.79 | 0.019 | 0.13
14 | COc1ccc(-c2[nH]c3ccc(N4CCC(N(C)CCCN(C)C)CC4)cc3c2C(C)C)cc1OC [Example 81, N1-(1-(2-(3,4-dimethoxyphenyl)-3-isopropyl-1H-indol-5-yl)piperidin-4-yl)-N1,N3,N3-trimethylpropane-1,3-diamine] | 1.05 | 0.01 | 0.044
15 | CCN1CCCN(C2CCN(c3ccc4[nH]c(-c5ccc(OC)c(OC)c5)c(C(C)C)c4c3)CC2)CC1 [Example 84, 2-(3,4-dimethoxyphenyl)-5-(4-(4-ethyl-1,4-diazepan-1-yl)piperidin-1-yl)-3-isopropyl-1H-indole] | 0.999 | 0.0047 | 0.016
